Broadly, the melting point is the temperature, or range, at which the solid turns liquid. What is called IC50 is the midpoint of a concentration-inhibition curve. The low end stands for greater potency, the high end for weaker potency.

The source of these data is patent publication US8383647B2, “Quinoline derivative” (Takeda Pharmaceutical Company Limited, priority 2009, dated 2013).

Where a name gives a salt, the structure may show the parent alone.

In one data set the target is human SLC-1 (Homo sapiens, UniProt Q99705). The data set is described as follows: MCH receptor antagonistic activity (inhibitory activity, Experimental Example 1). Type of data set: biochemical.
Another data set concerns the target rat SLC-1 (Rattus norvegicus, UniProt P97639). The data set is described as above. Type of data set: biochemical.

Sequence of human SLC-1 (Q99705 whole entry): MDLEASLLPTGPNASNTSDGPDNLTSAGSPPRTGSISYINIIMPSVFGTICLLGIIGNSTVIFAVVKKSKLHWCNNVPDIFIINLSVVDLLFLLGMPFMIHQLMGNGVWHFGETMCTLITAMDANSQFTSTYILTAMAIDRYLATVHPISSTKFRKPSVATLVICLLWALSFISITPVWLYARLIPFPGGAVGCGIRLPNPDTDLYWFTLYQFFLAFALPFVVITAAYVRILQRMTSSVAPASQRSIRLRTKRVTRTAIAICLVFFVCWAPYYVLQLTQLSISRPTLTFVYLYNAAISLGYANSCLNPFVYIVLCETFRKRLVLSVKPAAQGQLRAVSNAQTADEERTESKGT
Sequence of rat SLC-1 (P97639 whole entry): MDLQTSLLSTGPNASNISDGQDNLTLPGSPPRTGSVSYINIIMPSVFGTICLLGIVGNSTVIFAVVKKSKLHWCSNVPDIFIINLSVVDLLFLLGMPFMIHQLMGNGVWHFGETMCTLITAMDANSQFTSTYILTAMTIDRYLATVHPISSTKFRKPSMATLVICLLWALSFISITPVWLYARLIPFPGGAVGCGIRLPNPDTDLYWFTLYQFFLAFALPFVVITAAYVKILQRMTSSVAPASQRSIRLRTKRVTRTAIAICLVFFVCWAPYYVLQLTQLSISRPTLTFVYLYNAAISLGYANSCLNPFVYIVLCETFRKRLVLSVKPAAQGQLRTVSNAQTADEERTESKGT

Consider `COC(C)(C)CNCc1cnc2c(C)c(NC(=O)c3ccc(OC[C@@H]4CCCO4)cc3)ccc2c1` (as salt: hydrochloride) [Example 30, N-(3-{[(2-methoxy-2-methylpropyl)amino]methyl}-8-methylquinolin-7-yl)-4-[(2S)-tetrahydrofuran-2-ylmethoxy]benzamide dihydrochloride], for which the melting point is 235 to 237 °C.
The same measure, in the same setting: under `Cc1c(NC(=O)c2ccc(OC[C@@H]3CCCO3)cc2)ccc2cc(CNCC3(O)CCCCC3)cnc12` (as salt: hydrochloride) [Example 41, N-[3-({[(1-hydroxycyclohexyl)methyl]amino}methyl)-8-methylquinolin-7-yl]-4-[(2S)-tetrahydrofuran-2-ylmethoxy]benzamide dihydrochloride] stands 242 to 244 °C.
In the case of `Cc1c(NC(=O)c2ccc(OCC3CCOC3)cc2)ccc2cc(CNCC(C)C)cnc12` (single isomer, unassigned) [Example 61, N-(8-methyl-3-{[(2-methylpropyl)amino]methyl}quinolin-7-yl)-4-(tetrahydrofuran-3-ylmethoxy)benzamide], the IC50 on human SLC-1 turned out to be 2.2 nM; at rat SLC-1, 2.1 nM.
The compound `Cc1c(NC(=O)c2ccc(OCC3CCCO3)cc2)ccc2cc(CNCC(C)(C)O)cnc12` (stereo not shown) [Example 1, N-(3-{[(2-hydroxy-2-methylpropyl)amino]methyl}-8-methylquinolin-7-yl)-4-(tetrahydrofuran-2-ylmethoxy)benzamide] returned a melting point of 138 °C.
Same read-out and setting: under `Cc1c(NC(=O)c2ccc(OCC3CCCO3)cc2)ccc2cc(CN[C@H]3CCCC[C@@H]3O)cnc12` (stereo partly drawn) [Example 3, N-[3-({[(1S,2S)-2-hydroxycyclohexyl]amino}methyl)-8-methylquinolin-7-yl]-4-(tetrahydrofuran-2-ylmethoxy)benzamide] stands 197 °C.
On the same count and under the same terms, the value for `Cc1c(NC(=O)c2ccc(OCC3CCOC3)cc2)ccc2cc(CNC(C)C)cnc12` (stereo not shown) [Example 7, N-(8-methyl-3-{[(1-methylethyl)amino]methyl}quinolin-7-yl)-4-(tetrahydrofuran-3-ylmethoxy)benzamide] was 106 °C.
`Cc1c(NC(=O)c2ccc(OCC3CCOC3)cc2)ccc2cc(CNC3CCCC3)cnc12` (stereo not shown) [Example 16, N-{3-[(cyclopentylamino)methyl]-8-methylquinolin-7-yl}-4-(tetrahydrofuran-3-ylmethoxy)benzamide] registered a melting point of 148 to 149 °C. At human SLC-1, this compound displayed a 50% inhibitory concentration (IC50) of 2.8 nM. For the same compound, on rat SLC-1, inhibition was half-maximal at 3.2 nM (IC50).
The like results for `Cc1c(NC(=O)c2ccc(OC[C@H]3CCCO3)cc2)ccc2cc(CNCC(C)(C)C)cnc12` [Example 25, N-(3-{[(2,2-dimethylpropyl)amino]methyl}-8-methylquinolin-7-yl)-4-[(2R)-tetrahydrofuran-2-ylmethoxy]benzamide] were, in that order, 110 to 111 °C, 3.4 nM and 3.5 nM.
In turn, `Cc1c(NC(=O)c2ccc(OC[C@@H]3CCCO3)cc2)ccc2cc(CNC[C@H]3CCCO3)cnc12` [Example 27, N-[8-methyl-3-({[(2R)-tetrahydrofuran-2-ylmethyl]amino}methyl)quinolin-7-yl]-4-[(2S)-tetrahydrofuran-2-ylmethoxy]benzamide] displayed a melting point of 92 to 94 °C. The same compound returned an IC50 against human SLC-1 of 6.3 nM. Further, on rat SLC-1, inhibition was half-maximal at 7.8 nM (IC50).
The like results for `Cc1c(NC(=O)c2ccc(OC[C@@H]3CCCO3)cc2)ccc2cc(CNC[C@@H]3CCCO3)cnc12` [Example 29, N-[8-methyl-3-({[(2S)-tetrahydrofuran-2-ylmethyl]amino}methyl)quinolin-7-yl]-4-[(2S)-tetrahydrofuran-2-ylmethoxy]benzamide] were, in that order, 93 to 94 °C, 3.2 nM and 4.6 nM.
As for `COC(C)(C)CNCc1cnc2c(C)c(NC(=O)c3ccc(OC[C@@H]4CCCO4)cc3)ccc2c1` [Example 30, N-(3-{[(2-methoxy-2-methylpropyl)amino]methyl}-8-methylquinolin-7-yl)-4-[(2S)-tetrahydrofuran-2-ylmethoxy]benzamide dihydrochloride], the half-maximal inhibitory concentration (IC50) is 8.4 nM against human SLC-1 and 11 nM against rat SLC-1.
Regarding `Cc1c(NC(=O)c2ccc(OC[C@@H]3CCCO3)cc2)ccc2cc(CNCC3CCOCC3)cnc12` [Example 32, N-(8-methyl-3-{[(tetrahydro-2H-pyran-4-ylmethyl)amino]methyl}quinolin-7-yl)-4-[(2S)-tetrahydrofuran-2-ylmethoxy]benzamide], the melting point lay within 92 to 94 °C. The IC50 on human SLC-1 was 6 nM. The same compound came in with a half-inhibitory concentration (IC50) against rat SLC-1 of 6.4 nM.
`Cc1c(NC(=O)c2ccc(OC[C@@H]3CCCO3)cc2)ccc2cc(CNCC3(C)COC3)cnc12` [Example 34, N-[8-methyl-3-({[(3-methyloxetan-3-yl)methyl]amino}methyl)quinolin-7-yl]-4-[(2S)-tetrahydrofuran-2-ylmethoxy]benzamide]: the melting point is 117 to 119 °C. At human SLC-1, this compound came in with a concentration for half-maximal inhibition (IC50) of 5.5 nM. At rat SLC-1, the IC50 was 6.5 nM.
In turn, `CCNCc1cnc2c(C)c(NC(=O)c3ccc(OC[C@@H]4CCCO4)cc3)ccc2c1` [Example 35, N-{3-[(ethylamino)methyl]-8-methylquinolin-7-yl}-4-[(2S)-tetrahydrofuran-2-ylmethoxy]benzamide] yielded a melting point of 149 to 151 °C. The compound also had an IC50 against human SLC-1 of 7.1 nM. This compound showed an IC50 against rat SLC-1 of 17 nM.
The like results for `Cc1c(NC(=O)c2ccc(OC[C@@H]3CCCO3)cc2)ccc2cc(CNC3CCCC3)cnc12` [Example 36, N-{3-[(cyclopentylamino)methyl]-8-methylquinolin-7-yl}-4-[(2S)-tetrahydrofuran-2-ylmethoxy]benzamide] were, in that order, 152 to 153 °C, 1.7 nM and 3 nM.
For `Cc1c(NC(=O)c2ccc(OC[C@@H]3CCCO3)cc2)ccc2cc(CNCC3CC3)cnc12` [Example 37, N-(3-{[(cyclopropylmethyl)amino]methyl}-8-methylquinolin-7-yl)-4-[(2S)-tetrahydrofuran-2-ylmethoxy]benzamide], the melting point is 156 to 158 °C. For the same compound, at human SLC-1, the IC50 was determined as 3 nM. Besides, the IC50 at rat SLC-1 is 4.1 nM.
As for `Cc1c(NC(=O)c2ccc(OC[C@@H]3CCCO3)cc2)ccc2cc(CNCC(C)C)cnc12` [Example 38, N-(8-methyl-3-{[(2-methylpropyl)amino]methyl}quinolin-7-yl)-4-[(2S)-tetrahydrofuran-2-ylmethoxy]benzamide], the melting point is 142 to 143 °C. Also, at human SLC-1, the IC50 turned out to be 1.5 nM. The compound also registered an IC50 at rat SLC-1 of 1.7 nM.
The like results for `Cc1c(NC(=O)c2ccc(OC[C@@H]3CCCO3)cc2)ccc2cc(CNCC(C)(C)C)cnc12` [Example 39, N-(3-{[(2,2-dimethylpropyl)amino]methyl}-8-methylquinolin-7-yl)-4-[(2S)-tetrahydrofuran-2-ylmethoxy]benzamide] were, in that order, 114 to 116 °C, 1.8 nM and 2 nM.
The like results for `Cc1c(NC(=O)c2ccc(OC[C@H]3CCCO3)cc2)ccc2cc(CN[C@H]3CC[C@H](O)CC3)cnc12` [Example 40, N-(3-{[(trans-4-hydroxycyclohexyl)amino]methyl}-8-methylquinolin-7-yl)-4-[(2R)-tetrahydrofuran-2-ylmethoxy]benzamide] were, in that order, 182 to 183 °C, 7.7 nM and 13 nM.
For `Cc1c(NC(=O)c2ccc(OC[C@@H]3CCCO3)cc2)ccc2cc(CNCC3(O)CCCCC3)cnc12` [Example 41, N-[3-({[(1-hydroxycyclohexyl)methyl]amino}methyl)-8-methylquinolin-7-yl]-4-[(2S)-tetrahydrofuran-2-ylmethoxy]benzamide dihydrochloride], the results for the half-inhibitory concentration (IC50) against human SLC-1 and against rat SLC-1 were 1.5 nM and 1.6 nM, respectively.
The matching figures for `Cc1c(NC(=O)c2ccc(OC[C@H]3CCCO3)cc2)ccc2cc(CN[C@H]3CC[C@](C)(O)CC3)cnc12` [Example 51, N-(3-{[(trans-4-hydroxy-4-methylcyclohexyl)amino]methyl}-8-methylquinolin-7-yl)-4-[(2R)-tetrahydrofuran-2-ylmethoxy]benzamide]: 4.1 nM and 5.3 nM.
Compound `Cc1c(NC(=O)c2ccc(OC[C@H]3CCCO3)cc2)ccc2cc(CN[C@H]3CC[C@@](C)(O)CC3)cnc12` [Example 53, N-(3-{[(cis-4-hydroxy-4-methylcyclohexyl)amino]methyl}-8-methylquinolin-7-yl)-4-[(2R)-tetrahydrofuran-2-ylmethoxy]benzamide] registered a melting point of 163 to 164 °C.
As for `Cc1c(NC(=O)c2ccc(OCC3CCOC3)cc2)ccc2cc(CNCC(C)C)cnc12` (stereo not shown) [Example 59, N-(8-methyl-3-{[(2-methylpropyl)amino]methyl}quinolin-7-yl)-4-(tetrahydrofuran-3-ylmethoxy)benzamide], the melting point was found to be 132 °C.
In turn, `Cc1c(NC(=O)c2ccc(OCC3CCOC3)cc2)ccc2cc(CNCC(C)C)cnc12` (stereo not shown) [Example 60, N-(8-methyl-3-{[(2-methylpropyl)amino]methyl}quinolin-7-yl)-4-(tetrahydrofuran-3-ylmethoxy)benzamide] came in with a melting point of 130 to 131 °C.
Still for that read-out and setting: under `Cc1c(NC(=O)c2ccc(OCC3CCOC3)cc2)ccc2cc(CN[C@H]3CC[C@](C)(O)CC3)cnc12` (stereo partly drawn) [Example 64, N-(3-{[(trans-4-hydroxy-4-methylcyclohexyl)amino]methyl}-8-methylquinolin-7-yl)-4-(tetrahydrofuran-3-ylmethoxy)benzamide] stands 98 to 101 °C.
`COC(C)(C)CNCc1cnc2c(C)c(NC(=O)c3ccc(OCC4CCOC4)cc3)ccc2c1` (stereo not shown) [Example 65, N-(3-{[(2-methoxy-2-methylpropyl)amino]methyl}-8-methylquinolin-7-yl)-4-(tetrahydrofuran-3-ylmethoxy)benzamide] registered a melting point of 137 °C.
Same read-out and setting: under `Cc1c(NC(=O)c2ccc(OCC3CCOC3)cc2)ccc2cc(CN3CCC(C)(O)CC3)cnc12` (stereo not shown) [Example 66, N-{3-[(4-hydroxy-4-methylpiperidin-1-yl)methyl]-8-methylquinolin-7-yl}-4-(tetrahydrofuran-3-ylmethoxy)benzamide] stands 160 to 162 °C.
